Results taken from ChEMBL document CHEMBL1201862, “PubChem BioAssay data set” (2004).
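Cultured in 96-well plates, cells were exposed to test compound for 48 hours across five concentrations. GI50 is the concentration that inhibits growth by half.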 Calls of active or inactive are those of the source. No stated cut-off is given here; in the data, active = GI50 up to about 1.1 µM and inactive = higher.

Legend:
Assay in all cases: DTP human tumour cell line panel, 48 h
UO-31 = test system: UO-31
SNB-75 = test system: SNB-75
COLO 205 = test system: COLO 205
NCI-H522 = test system: NCI-H522
IGROV-1 = test system: IGROV-1
TK-10 = test system: TK-10
SNB-78 = test system: SNB-78
SF-268 = test system: SF-268
UACC-257 = test system: UACC-257
OVCAR-5 = test system: OVCAR-5
OVCAR-8 = test system: OVCAR-8
HOP-62 = test system: HOP-62
SK-MEL-5 = test system: SK-MEL-5
SNB-19 = test system: SNB-19
KM12 = test system: KM12
M14 = test system: M14
UACC-62 = test system: UACC-62
NCI-H226 = test system: NCI-H226
MDA-MB-231 = test system: MDA-MB-231
DU-145 = test system: DU-145

Measured: GI50

Clc1cccc2c1OCC1C(c3ccccc3)=NN(c3ccccc3)C21 (stereo not given)
inactive: UO-31 60.8 µM | SNB-75 > 100 µM | COLO 205 > 100 µM | NCI-H522 45.4 µM | IGROV-1 > 100 µM | TK-10 > 100 µM | SNB-78 72.9 µM | SF-268 63.2 µM | UACC-257 67.3 µM | OVCAR-5 > 100 µM | OVCAR-8 81.8 µM | HOP-62 > 100 µM | SK-MEL-5 23.8 µM | SNB-19 96.4 µM | KM12 87.1 µM

CCCCCCCCCCCCCCCCCCCCCC(=O)Nc1ccn(C2OC(CO)C(O)C2O)c(=O)n1 (stereo not given)
inactive: UO-31 32.1 µM | SNB-75 > 83.6 µM | COLO 205 > 54.2 µM | NCI-H522 > 100 µM | IGROV-1 > 68.9 µM | M14 4.91 µM | TK-10 > 100 µM | SNB-78 > 100 µM | SF-268 18.4 µM | UACC-257 > 100 µM | OVCAR-5 > 61 µM | OVCAR-8 12.4 µM | HOP-62 3.11 µM | SK-MEL-5 29 µM | UACC-62 33.6 µM | SNB-19 > 57 µM | NCI-H226 > 100 µM | KM12 > 100 µM

O=C(Cc1nc2c3c(ccc2nc1O)C(=O)c1ccccc1C3=O)C(=O)Nc1ccccc1[N+](=O)[O-]
inactive: UO-31 27.5 µM | COLO 205 15.2 µM | NCI-H522 5.27 µM | IGROV-1 29.6 µM | M14 16.3 µM | TK-10 24.2 µM | SNB-78 4.22 µM | SF-268 14.4 µM | UACC-257 17.7 µM | OVCAR-5 21.5 µM | OVCAR-8 17.1 µM | HOP-62 18.3 µM | SK-MEL-5 18.3 µM | UACC-62 25.6 µM | SNB-19 16.6 µM | NCI-H226 20.6 µM | KM12 18.7 µM

C/C(=C1/N=C(c2cc([N+](=O)[O-])ccc2Cl)N(c2ccc(Br)cc2)C1=O)c1ccc(N(CCC#N)CCC#N)cc1C
inactive: UO-31 24.7 µM | SNB-75 > 100 µM | COLO 205 32.2 µM | IGROV-1 28.4 µM | M14 13.6 µM | TK-10 68.2 µM | SNB-78 40.6 µM | SF-268 61.7 µM | UACC-257 57.5 µM | OVCAR-5 50.9 µM | OVCAR-8 43.5 µM | HOP-62 19.8 µM | SK-MEL-5 13.7 µM | UACC-62 3.61 µM | SNB-19 19.8 µM | NCI-H226 > 100 µM | KM12 15.1 µM

NNC(=O)C(=O)N/N=C1\CCC(=O)CC1C(=O)CCC(=O)Nc1ccc(Cl)cc1 (stereo not given)
inactive: UO-31 > 100 µM | SNB-75 39.4 µM | COLO 205 > 100 µM | IGROV-1 > 100 µM | M14 > 100 µM | TK-10 > 100 µM | SNB-78 > 100 µM | SF-268 > 100 µM | UACC-257 > 100 µM | OVCAR-5 > 100 µM | OVCAR-8 > 100 µM | SK-MEL-5 > 100 µM | UACC-62 > 100 µM | SNB-19 > 100 µM | NCI-H226 > 100 µM | KM12 64 µM

FC(F)(F)c1cccc(C2SCc3nc4ccccc4n32)c1 (stereo not given)
inactive: UO-31 > 100 µM | SNB-75 29.8 µM | COLO 205 > 100 µM | NCI-H522 17.6 µM | IGROV-1 33.7 µM | TK-10 72.3 µM | SNB-78 > 100 µM | SF-268 90.6 µM | UACC-257 4.54 µM | OVCAR-5 6.32 µM | OVCAR-8 59.3 µM | SK-MEL-5 11 µM | UACC-62 > 100 µM | SNB-19 51.3 µM | NCI-H226 > 100 µM | KM12 68.4 µM

Nc1ccc(C2SCC(=O)N2NS(=O)(=O)c2cccc(C(=O)O)c2)cc1 (stereo not given)
inactive: UO-31 > 100 µM | SNB-75 > 100 µM | COLO 205 > 100 µM | NCI-H522 > 100 µM | MDA-MB-231 > 100 µM | IGROV-1 > 100 µM | M14 > 100 µM | TK-10 > 100 µM | SF-268 > 100 µM | UACC-257 > 100 µM | OVCAR-5 > 100 µM | OVCAR-8 > 100 µM | HOP-62 > 100 µM | SK-MEL-5 > 100 µM | UACC-62 > 100 µM | DU-145 > 100 µM | SNB-19 > 100 µM | NCI-H226 > 100 µM | KM12 > 100 µM

CCCCCC(O)(CCCCC)CCCCCCCCC1=C(O)C(=O)c2ccc(=O)[nH]c2C1=O
inactive: UO-31 13.3 µM | SNB-75 17.5 µM | COLO 205 17.9 µM | NCI-H522 4.78 µM | IGROV-1 5.53 µM | M14 10 µM | SNB-78 21.2 µM | SF-268 5.02 µM | UACC-257 3.64 µM | OVCAR-5 20.3 µM | OVCAR-8 9.06 µM | HOP-62 10.4 µM | SK-MEL-5 3.78 µM | UACC-62 3.2 µM | SNB-19 5.48 µM | NCI-H226 8.36 µM | KM12 11 µM

C=C1C2CC(OC(C)=O)C3(C)C(c4ccoc4)OC(=O)[C@@H](O)[C@]13OC1C[C@H](OC(C)=O)C(C)(C)[C@H](C(O)C(=O)OC)[C@]12C (stereo not given in full)
inactive: UO-31 > 100 µM | SNB-75 29.9 µM | COLO 205 > 100 µM | IGROV-1 > 100 µM | M14 > 100 µM | TK-10 > 100 µM | SNB-78 > 100 µM | OVCAR-8 > 100 µM | SK-MEL-5 > 100 µM | UACC-62 > 100 µM | SNB-19 > 100 µM | NCI-H226 > 100 µM | KM12 > 100 µM

CCSC1=N/C(=C\c2ccco2)C(NN)=N1
inactive: UO-31 > 50 µM | SNB-75 > 50 µM | COLO 205 > 50 µM | NCI-H522 > 50 µM | MDA-MB-231 > 50 µM | IGROV-1 > 50 µM | M14 > 50 µM | TK-10 > 50 µM | SF-268 > 50 µM | UACC-257 > 50 µM | OVCAR-5 > 50 µM | OVCAR-8 > 50 µM | HOP-62 > 50 µM | SK-MEL-5 > 50 µM | UACC-62 > 50 µM | DU-145 > 50 µM | SNB-19 > 50 µM | NCI-H226 > 50 µM | KM12 > 50 µM

COC1=C(C)C(=O)C2C(C1=O)C(c1ccc(OC)c(OC)c1)[C@H]2C (stereo not given in full)
inactive: UO-31 61.1 µM | SNB-75 72.8 µM | COLO 205 > 100 µM | NCI-H522 > 100 µM | IGROV-1 > 100 µM | M14 > 100 µM | TK-10 > 100 µM | SNB-78 > 100 µM | SF-268 > 100 µM | OVCAR-5 > 100 µM | OVCAR-8 > 100 µM | HOP-62 > 100 µM | SK-MEL-5 > 100 µM | UACC-62 > 100 µM | SNB-19 > 100 µM | NCI-H226 > 100 µM | KM12 > 100 µM

CCN(CC)c1ccc2cc(C(=O)Nc3cccc4ccccc34)c(=N)oc2c1
inactive: UO-31 > 100 µM | SNB-75 > 100 µM | COLO 205 > 100 µM | NCI-H522 64 µM | MDA-MB-231 > 100 µM | IGROV-1 > 100 µM | M14 38.8 µM | TK-10 > 100 µM | SF-268 > 100 µM | UACC-257 > 100 µM | OVCAR-5 > 100 µM | OVCAR-8 > 100 µM | HOP-62 > 10 µM | SK-MEL-5 43.1 µM | UACC-62 63.4 µM | DU-145 > 100 µM | SNB-19 52.8 µM | NCI-H226 > 100 µM | KM12 > 100 µM

CC(=O)Nc1ccc(-c2nc3cc(Cl)ccc3o2)cc1
inactive: UO-31 > 50 µM | SNB-75 32.5 µM | COLO 205 > 50 µM | NCI-H522 > 50 µM | MDA-MB-231 > 50 µM | IGROV-1 > 50 µM | M14 > 50 µM | TK-10 > 50 µM | SF-268 > 50 µM | UACC-257 > 50 µM | OVCAR-5 > 50 µM | OVCAR-8 > 50 µM | HOP-62 > 50 µM | SK-MEL-5 20.4 µM | UACC-62 > 50 µM | DU-145 > 50 µM | SNB-19 > 50 µM | NCI-H226 24.5 µM | KM12 > 50 µM

O=C(c1c2c(cc3c1CC1(Cc4cc5c(cc4C1)CCCC5)C3)CCCC2)C(Br)Br
inactive: UO-31 13.8 µM | SNB-75 5.08 µM | COLO 205 13.2 µM | NCI-H522 1.65 µM | MDA-MB-231 17.4 µM | IGROV-1 9.02 µM | M14 4.18 µM | TK-10 17 µM | SF-268 14.6 µM | UACC-257 19.9 µM | OVCAR-5 22.9 µM | OVCAR-8 15 µM | HOP-62 > 51.2 µM | SK-MEL-5 5.24 µM | UACC-62 14.9 µM | DU-145 > 58.5 µM | SNB-19 > 40.9 µM | NCI-H226 6.38 µM | KM12 22.1 µM

COc1cc(/C=N/N=C2NCCN2)ccc1O
inactive: UO-31 > 100 µM | SNB-75 > 100 µM | COLO 205 > 100 µM | NCI-H522 > 100 µM | MDA-MB-231 > 100 µM | IGROV-1 > 100 µM | M14 > 100 µM | TK-10 > 100 µM | SF-268 > 100 µM | UACC-257 > 100 µM | OVCAR-5 > 100 µM | OVCAR-8 > 100 µM | HOP-62 > 100 µM | SK-MEL-5 > 100 µM | UACC-62 > 100 µM | DU-145 > 100 µM | SNB-19 > 100 µM | NCI-H226 > 100 µM | KM12 > 100 µM
